# pIC50: −log10 of the molar value. “Also recorded” adds a separate entry of the source.
# Key:
# [1] = DPPH radical scavenging assay; type: physicochemical; details: for Scavenging activity on DPPH radical (in words): Fig. 3B
# Method: (§1) The radical scavenging activity of prepared compounds was assessed through using ABTS decolorization assay and method reported by Re et al. with few modifications. In this regard, ABTS solution was diluted with 80% ethanol to the absorbance of 0.70 ± 0.05 at 734 nm. After adding 100 µL of the obtained compounds in ethanol (1–30 µM) or ascorbic acid, absorbance was measured at exactly 20 min in the same wavelength. DPPH assay was based on the method provided by Ghafouri et al. with some modifications. Additionally, the quenching of free radicals by novel synthesized compounds was evaluated spectrophotometrically (UV–Vis Pharmacia Biotech Ultrospec 3000) at 517 nm against the absorbance of DPPH radical. Further, ferric reducing/antioxidant power (FRAP) assay was performed according to the previous study with some modifications, the principle of which was based on reducing a ferric 2,4,6-tris(2-pyridyl)-1,3,5-triazine (Fe^3+-TPTZ) to ferrous in the presence of prepared compounds. Finally, a standard curve was drawn by considering the different concentrations (10–1000 µM) of ferrous sulfate.
# [2] = ABTS radical decolorization assay; type: physicochemical; details: final concentration 1–30 μM, absorbance at 734 nm
# Method: as §1
# PC12 cells [3] = test: Cell viability of PC12 cells treated with CHP4 (MTT); type: cell-based; details: concentrations of 0–100 μM; 24 and 48 h
# Method: Rattus norvegicus pheochromocytoma PC12 cells (Pastor Institute, Iran) were cultured in the Dulbecco's Modified Eagle's Medium (DMEM) containing 10% fetal bovine serum (FBS) and 1% penicillin/streptomycin (Gibco) at 37 °C with 5% CO2. In order to examine the role of CHP4, PC12 cells were treated with the different concentrations (10–100 µM) of CHP4 for 24 and 48 h. […] Furthermore, […] 10 µL of 0.5 mg/mL MTT stock solution were added to each well containing about 1 mL of medium and the mixture was incubated for 4 h. Then, the plates were agitated on a plate shaker for 30 min and optical density was read at 570 nm by using an ELISA reader (Biotech).
# HSP70 = test: Western blot analysis of HSP70 in PC12 cells; type: cell-based, Rattus norvegicus; details: PC12 cells in presence of Ab1-42; CHP4 30 μM (b1)
# Method: (§2) To this end, the cells were seeded in the 6-well plate and treated with 20 and 30 µM CHP4 for 24 h. Additionally, they were washed with cold PBS, followed by lysing with lysis buffer (20 mM Tris (pH 7.5), 150 mM NaCl, 1 mM EDTA, 1% NP-40, 0.5% sodium deoxycholate, 0.1% SDS, 50 mM Tris, protease and phosphatase inhibitor cocktails) for 30 min on ice. After centrifuging lysates at 4 °C in 12,000g for 10 min, the supernatants were transferred to new tubes. Protein concentration was detected through using the Bradford assay. Further, the denatured proteins was resolved on SDS-PAGE, transferred onto PVDF membranes (Millipore, Billerica, MA, USA), and blocked with 5% nonfat dry milk in the PBS containing 0.1% Tween-20 (PBST). Then, the membranes were incubated with the rabbit primary antibodies against Tau-p, HSP70, and β-actin (as a control group) overnight at 4 °C, and exposed with the horseradish peroxidase (HRP)-conjugated second antibody for 2 h at room temperature. Finally, the density of relative protein bands was determined through densitometric scanning the blots by using Image-J program.
# [4] = target: T1, AChE from Electrophorus electricus (Electrophorus electricus, UniProt O42275); test: biochemical; details: Ellman method, compounds 0.1–10 µM, triplicate; read-out: IC50 against AChE activity
# T1 construct: purchased Sigma
# Method: The AChE inhibitory activity of all synthesized novel derivatives and their controls was evaluated through using the Ellman method. […] Each concentration was assayed in triplicate. […] Finally, absorbance was recorded by using a Pharmacia Biotech Ultrospec 3000 UV–Vis spectrophotometer at 410 nm.
# [5] = Ferric reducing/antioxidant power (FRAP) assay; type: physicochemical; details: for Antioxidant effect in FRAP (in words): Fig. 3C
# Method: as §1
# PC12 cells [6] = test: Ab1-42-induced cytotoxicity in PC12 cells, neuroprotection (MTT); type: cell-based; details: 100 µM Ab1-42, 24 h
# Method: Rattus norvegicus pheochromocytoma PC12 cells (Pastor Institute, Iran) were cultured in the Dulbecco's Modified Eagle's Medium (DMEM) containing 10% fetal bovine serum (FBS) and 1% penicillin/streptomycin (Gibco) at 37 °C with 5% CO2. […] Furthermore, 50 µL of DMSO and 10 µL of 0.5 mg/mL MTT stock solution were added to each well containing about 1 mL of medium and the mixture was incubated for 4 h. Then, the plates were agitated on a plate shaker for 30 min and optical density was read at 570 nm by using an ELISA reader (Biotech).
# Tau-p = test: Western blot analysis of Tau-p in PC12 cells; type: cell-based, Rattus norvegicus; details: PC12 cells in presence of Ab1-42; CHP4 at 20 and 30 µM, 24 h
# Method: as §2
# T1 sequence (O42275 24-633): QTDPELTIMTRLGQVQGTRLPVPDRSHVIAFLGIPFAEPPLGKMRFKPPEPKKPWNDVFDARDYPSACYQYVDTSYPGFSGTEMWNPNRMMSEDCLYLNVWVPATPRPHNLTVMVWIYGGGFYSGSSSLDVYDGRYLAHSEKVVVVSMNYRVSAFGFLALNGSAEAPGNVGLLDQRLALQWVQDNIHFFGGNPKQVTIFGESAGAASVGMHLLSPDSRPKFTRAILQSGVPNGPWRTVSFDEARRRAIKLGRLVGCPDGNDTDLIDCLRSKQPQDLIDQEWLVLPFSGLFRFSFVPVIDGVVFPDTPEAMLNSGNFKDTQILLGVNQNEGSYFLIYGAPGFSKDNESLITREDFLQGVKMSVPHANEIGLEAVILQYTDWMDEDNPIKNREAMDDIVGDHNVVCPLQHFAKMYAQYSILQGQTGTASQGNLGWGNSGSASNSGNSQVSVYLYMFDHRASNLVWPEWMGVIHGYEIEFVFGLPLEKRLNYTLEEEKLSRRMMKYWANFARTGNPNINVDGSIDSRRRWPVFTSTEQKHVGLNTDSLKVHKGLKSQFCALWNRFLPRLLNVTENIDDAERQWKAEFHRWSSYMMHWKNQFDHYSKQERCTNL
SMILES,Scavenging activity on DPPH radical (in words) [1],pIC50 [4],Antioxidant effect in FRAP (in words) [5],further results
"COc1ccc(/C=N/Nc2nccnc2Cl)cc1 [CHP1, (E)-2-chloro-3-(2-(4-methoxybenzylidene) hydrazinyl) pyrazine]",moderate,–,–,ABTS radical scavenging activity (inhibition) [2]: 48%
"Oc1cccc(/C=N/Nc2nccnc2Cl)c1 [CHP3, (E)-3-((2-(3-chloropyrazin-2-yl)hydrazineylidene)methyl)phenol]",highest scavenging activity,–,–,–
"Oc1ccccc1/C=N/Nc1nccnc1Cl [CHP4, (E)-2-((2-(3-chloropyrazin-2-yl)hydrazineylidene)methyl)phenol]",highest scavenging activity,5.42,highest,"Toxicity in PC12 cells (PC12 cells [3]): non-toxic; HSP70 expression (western blot) (HSP70): significantly increased; also recorded: increased HSP70 expression; Ability for Fe3+ reduction (FRAP) ([5]; printed as 3.016 per 1 mM, concentration of Fe2+): 3.016; Effect on Ab1-42-induced cell death (PC12 cells [6]): significantly reduced the Ab1-42-induced cell death in a dose-dependent manner; Tau-p expression (western blot) (Tau-p): clearly decreased"
"Clc1ccc(/C=N/Nc2nccnc2Cl)cc1 [CHP5, (E)-2-chloro-3-(2-(4-chlorobenzylidene)hydrazineyl)pyrazine]",low,5.38,least,–
"Cc1ccc2occ(/C=N/Nc3nccnc3Cl)c(=O)c2c1 [CHP2, (E)-3-((2-(3-chloropyrazin-2-yl)hydrazineylidene)methyl)-6-methyl-4H-chromen-4-one]",highest scavenging activity,–,–,pIC50 ([1]; 517 nm): 4.59
